“Also recorded” adds a separate entry of the source. Like-named read-outs stand apart in the source and are kept apart here.
What was measured:
nine cancer cell lines = experiment: MTT cytotoxicity, over the nine cancer cell lines; conditions: for cytotoxicity IC50 values (in words): uncoordinated ligands
[1] = system: Histone deacetylase (HDAC); experiment: Histone deacetylase assay (Fluor-de-Lys) in MCF-7 cells; format: cell-based, human
Description: Histone deacetylase activity was determined using Fluor-de-Lys® HDAC fluorometric activity assay kit (Enzo Life Sciences International, Inc., Plymount Meeting, Pa., U.S.A.). […] Fluorescence was measured using a Fluoroskan Ascent FL (Labsystem, Finland) plate reader, with excitation at 360 nm and emission at 460 nm. For comparison purpose, the HDAC activity was also measured in nuclear extracts of MCF-7-treated cells by means of the same fluorometric activity assay kit. In this latter case, MCF-7 nuclear extracts were obtained as follow: cell pellets were re-suspended in lysis buffer [Tris.HCl (10 mM, pH 8.0), KCl (60 mM), EDTA (1.2 mM), DTT (1 mM), PMSF (0.05 mM), NP-40 (0.05%)] and kept on ice for 10 min. Subsequently, samples were centrifuged at 1000 g and re-suspended in the nuclear extraction buffer [Tris.HCl (20 mM, (pH 8.0), NaCl (420 mM), MgCl2 (0.7 mM), EDTA (0.25 mM), glycerol (25%)] for 30 min at 4° C., and then centrifuged at 15000 g for 15 min at 4° C.
The complexes described here were specifically designed to release either VPA of PhB inside the cells in the hope that they will inhibit HDAC activity paving the way for more efficient DNA platination. Thus, in addition to measuring the levels of DNA platination, we also measured the ability of these pro-drugs to inhibit HDAC activity in cells. […] For comparison purposes, the HDAC inhibitory effect determined by tested complexes was also assayed in isolated nuclei of MCF-7 treated cells (FIG. 3B).
The HDAC activity was determined by the Fluor de Lys® Fluorescent Cellular Activity Assay (Enzo Life Sciences).
Also, MCF-7 cells were incubated for 24 h with increasing concentrations of compounds I-VIII and their HDAC activity was determined. The IC50 values for the inhibition of HDAC activity in the cells are depicted in FIG. 3C.

A498 cells = experiment: MTT cytotoxicity assay, A498; format: cell-based, human; conditions: A498, 72 h exposure, read-out: IC50 (median growth inhibitory concentration)
Description: (§1) Platinum(IV) complexes were dissolved in DMSO to stock solutions of 1 mg/mL just before the experiment, and a calculated amount of drug solution was added to the cell growth medium to a final solvent concentration of 0.5%, which had no discernible effect on cell killing. Cisplatin (CDDP) and oxaliplatin (OXP) were dissolved just before the experiment in a 0.9% NaCl solution.
(§2) Human prostate adenocarcinoma (PC3) cells were obtained from European Collection of Cell Cultures (ECACC, Salisbury, UK). Human ovarian cancer cell lines A2780 and its cisplatin resistant variant, A2780cisR, were kindly provided by Prof.
(§3) Cancer Res. 1988, 48, 589-601]. […] Triplicate cultures were established for each treatment.

A2780cisR cells = experiment: MTT cytotoxicity assay, A2780cisR (cisplatin resistant); format: cell-based, human; conditions: for IC50: 72 h exposure, MTT, read-out: IC50 (median growth inhibitory concentration); for resistance factor: ratio IC50 resistant (A2780cisR) / sensitive (A2780) cells
Description: as §1, §2, §3

PC3 cells = experiment: MTT cytotoxicity assay, PC3; format: cell-based, human; conditions: PC3, 72 h exposure, read-out: IC50 (median growth inhibitory concentration)
Description: (§4) Cisplatin (CDDP) and oxaliplatin (OXP) were dissolved just before the experiment in a 0.9% NaCl solution.
as §2
(§5) Triplicate cultures were established for each treatment.

HCT-15 cells = experiment: MTT cytotoxicity assay, HCT-15; format: cell-based, human
Description: (§6) Cisplatin (CDDP) and oxaliplatin (OXP) were dissolved just before the experiment in a 0.9% NaCl solution. […]
as §3
(§7) MTT assay. […] Triplicate cultures were established for each treatment.
(§8) The two dimers, 3a and 3b, as well as compounds 1a and 2a were screened against six human cancer cell lines representative of lung (H157), colon (HCT-15), cervical (A431), ovarian (2008) and pancreatic (PSN1) cancers, along with melanoma (A375). Cytotoxicity was evaluated by means of the MTT test after 72 h of treatment and the in vitro antitumor potential of newly synthesized derivatives was compared to that of the reference metallo-drugs CDDP and OXP.

BxPC3 cells = experiment: MTT cytotoxicity assay, BxPC3; format: cell-based, human; conditions: BxPC3, 72 h exposure, MTT; read-out: IC50 (median growth inhibitory concentration)
A549 cells = experiment: MTT cytotoxicity assay, A549; format: cell-based, human; conditions: A549, 72 h exposure, MTT; read-out: IC50 (median growth inhibitory concentration)
Description: as §4, §2, §5

MCF-7 cells = experiment: MTT cytotoxicity assay, MCF-7; format: cell-based, human; conditions: MCF-7, 72 h exposure, MTT; read-out: IC50 (median growth inhibitory concentration)
Description: as §4, §2, §5

A375 cells = experiment: MTT cytotoxicity assay, A375; format: cell-based, human
Description: as §6, §3, §7, §8

A2780 cells = experiment: MTT cytotoxicity assay, A2780; format: cell-based, human; conditions: A2780, 72 h exposure, MTT; read-out: IC50 (median growth inhibitory concentration)
Description: as §1, §2, §3

PSN1 cells = experiment: MTT cytotoxicity assay, PSN1; format: cell-based, human; conditions: PSN1, 72 h, MTT
Description: as §7, §8

A431 cells = experiment: MTT cytotoxicity assay, A431; format: cell-based, human; conditions: A431, 72 h
Description: as §7, §8

[2] = HCT-15, 72 h exposure, MTT (Table 1), read-out: IC50 (median growth inhibitory concentration)
[3] = read-out: average IC50 values for the nine cancer cell lines, mean over nine cell lines, 72 h MTT
[4] = A375, 72 h exposure, MTT (Table 1), read-out: IC50 (median growth inhibitory concentration)
[5] = HCT-15, 72 h, MTT (Table 5), read-out: IC50 (μM) ± S.D.
[6] = A375, 72 h, MTT (Table 5), read-out: IC50 (μM) ± S.D.

Molecule	IC50 (A498 cells) [µM]	IC50 (A2780cisR cells; A2780cisR) [nM]	IC50 (PC3 cells) [µM]	IC50 (HCT-15 cells; [2]) [µM]	IC50 (BxPC3 cells) [µM]	IC50 (A549 cells) [µM]	IC50 (nine cancer cell lines; [3]) [µM]	IC50 (MCF-7 cells) [µM]	IC50 (A375 cells; [4]) [µM]	IC50 (A2780 cells) [nM]	other results
O=C(O)CCCc1ccccc1 [Compound 4-PB, 4-phenylbutyric acid, reference compound]											cytotoxicity IC50 values (in words) (nine cancer cell lines; listed as PhB): millimolar range; also recorded: mM range; IC50 for cellular inhibition of HDAC activity (in words) ([1]; MCF-7, 24 h, increasing concentrations): significantly higher
C1CCNCC1.CCCC(CCC)C(=O)[O][Pt]([OH])([Cl])[Cl].CCCCN [Compound V, trans-[Pt(n-butylamine)(VPA)(OH) (piperidine) Cl2]]	8.64 ± 0.95	1290 ± 290	16.8 ± 1.41	14.4 ± 2.05	4.43 ± 1.94	15.5 ± 1.13	9.27	8.8 ± 1.48	12.4 ± 2.93	1180 ± 330	fold more potent/effective than cisplatin (A2780cisR cells; A2780cisR): roughly 11 fold; resistance factor (A2780cisR cells): 1.1
CCCC(CCC)C(=O)[O][Pt]12([O]C(=O)C(CCC)CCC)([NH]C3CCCCC3[NH]1)[O]C(=O)C(=O)[O]2 (stereo not drawn) [III, [Pt(DACH)(C8H15O2)2(ox)]]	5.21 ± 1.1	8800 ± 2100	10.1 ± 1.17	16.4 ± 1.63	14.4 ± 2.16	20.5 ± 2.14		5.7 ± 0.9	4.17 ± 0.87	1300 ± 200	resistance factor (A2780cisR cells): 6.8
CC(/C=C/C(=O)NO)=C\[C@@H](C)C(=O)c1ccc(N(C)C)cc1 [TSA, trichostatin A]											inhibition of HDAC activity ([1]; MCF-7, 24 h incubation with IC50 concentrations): about 90%
CC(=O)[O][Pt]([NH2])([NH2])([Cl])([Cl])[O]C(=O)CCCc1ccccc1 [VII, Ctc-[Pt(NH3)2(C2H3O2)(C10H11O2)Cl2]]	8.42 ± 1.47	1540 ± 270	4.34 ± 1.25	5.17 ± 0.85	10.1 ± 1.69	7.16 ± 1.11	4.8	3.43 ± 0.14	6.25 ± 1.94	650 ± 40	factors more potent than cisplatin (nine cancer cell lines; in five out of the nine cell lines): 2.1-9 fold; IC50 (nine cancer cell lines; read-out: range of IC50 values over the cell lines, lowest-highest over nine cell lines): 0.65 to 10.1 µM
O=C(CCCc1ccccc1)[O][Pt]12([O]C(=O)CCCc3ccccc3)([NH]C3CCCCC3[NH]1)[O]C(=O)C(=O)[O]2 (stereo not drawn) [VIII, [Pt(DACH)(C10H11O2)2(ox)]]	9.32 ± 1.07	1960 ± 440	6.35 ± 1.19	12.5 ± 1.13	7.64 ± 1.15	19.6 ± 3.22	6.81	2.28 ± 0.46	0.64 ± 0.13	900 ± 80	
CCCC(CCC)C(=O)O [VPA, valproic acid, reference compound]											cytotoxicity IC50 values (in words) (nine cancer cell lines): millimolar range; also recorded: mM range; IC50 ([1]; MCF-7, 24 h, increasing concentrations, read-out: IC50 for cellular inhibition of HDAC activity): ~8 mM
c,c,t-[Pt(DACH)(56Phen)(PhBu)(Succ)]Cl2 [Compound 2a]											IC50 (HCT-15 cells; [5]): 6.25 ± 3.08 µM; IC50 (PSN1 cells): 3.23 ± 1.12 µM; IC50 (A431 cells): 4.15 ± 1.12 µM; IC50 (A375 cells; [6]): 1.57 ± 0.16 µM
c,c,t-[Pt(NH3)2Cl2(DCA)(GABA)](TFA) [Compound 1a]											IC50 (HCT-15 cells; [5]): 12.5 ± 3.58 µM; IC50 (PSN1 cells): 4.74 ± 2.87 µM; IC50 (A431 cells): 4.98 ± 1.63 µM; IC50 (A375 cells; [6]): 2.81 ± 0.21 µM

Source: patent publication US20190290656A1, “PT(IV) PRODRUGS” (YISSUM RESEARCH DEVELOPMENT COMPANY OF THE HEBREW …, priority 2015, published 2019)
